According to PubChem BioAssay AID1996:
In brackets after ≈: the same amount, converted by molar mass.

Conditions: buffer; pH 7.4; 200.0 µM

| Compound | solubility kinetic [µg/mL] |
| --- | --- |
| CC(=O)c1c(C)[nH]c(C(=O)COC(=O)CN2C(=O)C3CCCCC3C2=O)c1C (centres undefined) | > 58.3 |
| CC(C)c1ccc(CNC(=O)CCc2ccccc2)cc1 | 31.2 (≈ 111 µM) |
| Cc1ccc(Br)c(NS(=O)(=O)c2cccc(C(=O)N3CCNC(=O)C3)c2)c1 | > 67.8 |
| COc1ccc(OCC(O)CNS(=O)(=O)c2cccc(Cl)c2)cc1 (centres undefined) | 51.4 (≈ 138 µM) |
| Cc1ccc(S(=O)(=O)CC(=O)N2CC(C)OC(C)C2)cc1 (centres undefined) | > 46.7 |
| COCCNC(=S)Nc1ccccc1Cc1ccccc1 | 13.7 (≈ 45.6 µM) |
| Cc1ccc(Cl)cc1NC(=O)Cn1c(C)csc1=O | 16.4 (≈ 55.3 µM) |
| Cc1cc2nc(-c3ccc[nH]c3=O)n(Cc3ccccc3F)c2cc1C | 0.4 (≈ 1.15 µM) |
| NC(=O)C1CCN(C(=O)/C=C/c2ccccc2[N+](=O)[O-])CC1 | > 45.5 |
| CC(C)C(=O)NC(=S)Nc1c(Cl)ccc2nsnc12 | 40.1 (≈ 127 µM) |
| CCOc1ccc(S(=O)(=O)NCc2ccc3c(c2)OCO3)cc1 | 10.9 (≈ 32.5 µM) |
| O=c1c2[nH]c3cccc(Cl)c3c2ncn1CC1CCCO1 (centres undefined) | 7.4 (≈ 24.4 µM) |
| CCc1cccc(C)c1NC(=O)c1cccnc1 | 34.4 (≈ 143 µM) |
| Clc1ccc2nc(-c3ccccc3)nc(C(Cl)Cl)c2c1 | < 0.3 |
| O=C(CN1CCCC1)N1CCN(c2ccccc2)CC1 | > 41 |
| CC(=O)c1ccc(NC(=S)NC(=O)Cc2ccc(Cl)cc2)cc1 | 0.4 (≈ 1.15 µM) |
| N#CCn1cnc2c(oc3ccccc32)c1=O | > 33.8 |
| CSc1ccccc1NC(=O)CN(C)C(=O)COc1cccc2cccnc12 | > 59.3 |
| Cc1nc(SCc2ccc(F)cc2)c2oc3ccccc3c2n1 | < 0.3 |
| CSc1ncccc1C(=O)OCC(=O)NCCc1ccccc1 | 27.9 (≈ 84.4 µM) |
| CCc1nnc(SCC(=O)NC2CC2)n1CC | > 38.2 |
| COc1ccccc1NS(=O)(=O)c1ccc2oc(=S)[nH]c2c1 | > 50.5 |
| CCC1(c2ccc(Cl)cc2)NC(=O)N(CC(=O)NC2(C#N)CCCCC2)C1=O (centres undefined) | > 60.4 |
| CCc1noc(C)c1C(=O)OCC(=O)NC(=O)c1ccccc1OC | 18.6 (≈ 53.7 µM) |

| Compound | solubility kinetic [µg/mL] |
| --- | --- |
| COc1ccc(-n2c(N)cc(=O)[nH]c2=O)cc1 | > 35 |
| Cc1cccnc1NC(=O)NC(=O)c1ccc(C(C)(C)C)s1 | 9.1 (≈ 28.7 µM) |
| CSc1ccccc1C(=O)OCC(=O)NCCN1C(=O)CSC1=O | > 55.3 |
| O=c1c2sc3ccccc3c2[nH]c(=S)n1CCN1CCOCC1 | 49.9 (≈ 144 µM) |
| CCOC(=O)c1c(C=O)c2ccccc2n1Cc1ccccc1F | < 0.7 |
| O=c1[nH]oc2cc(Cl)ccc12 | > 25.4 |
| Cn1c(COc2ccc(F)cc2)nc2ccccc21 | 36.3 (≈ 142 µM) |
| CN(C(=O)CN1C(=O)c2ccc([N+](=O)[O-])cc2C1=O)C1CCCCC1 | > 51.8 |
| Cl.O=C(c1cc2c(s1)CCCC2)N1CCN(CCO)CC1 | > 49.6 |
| O=C(COc1ccccc1)Nc1ccc(NC(=O)c2ccco2)cc1 | 2.6 (≈ 7.73 µM) |
| O=C(c1ccc([N+](=O)[O-])s1)N1CCc2ccccc2C1 | 2.8 (≈ 9.71 µM) |
| CCC(C)NC(=O)C1c2ccccc2C(=O)N1Cc1ccccc1 (centres undefined) | 38.4 (≈ 119 µM) |
| COc1cccc(NC(=O)Nc2cccnc2)c1 | > 36.5 |
| Cc1ccc(NC(=O)C2=C(C(=O)O)CCCC2)cc1Br | 33.3 (≈ 98.5 µM) |
| O=c1cc(-c2ccccc2)nc(Cc2c(Cl)cccc2Cl)[nH]1 | < 0.4 |
| COc1ccc(NC(=O)CN2C(=O)NC3(CCCCCC3)C2=O)cc1Cl | 13.8 (≈ 36.3 µM) |
| Cc1noc(C)c1C(=O)OCC(=O)Nc1ncc(Cl)c(C)c1Cl | > 53.7 |
| CC(=O)c1c(C)[nH]c(C(=O)Nc2ccc(Cl)cc2F)c1C | 0.7 (≈ 2.27 µM) |
| Clc1ccc(-c2nc3ccccn3c2CN2CCSCC2)cc1 | 1.9 (≈ 5.53 µM) |
| COC(=O)c1ccc(S(=O)(=O)N2CCN(C)CC2)n1C | > 45.2 |
| COc1ccc(NC(=S)Nc2ccccc2SC)c(OC)c1 | 47.5 (≈ 142 µM) |
| CC(=O)c1cn(C)c(=O)c2ccccc12 | > 30.2 |
| Cc1nc(-c2ccc(NC(=O)C(C)(C)C)cc2)c(-c2ccccc2)o1 | 0.8 (≈ 2.39 µM) |
| CN(Cc1nc(-c2cccs2)no1)CC1(N2CCOCC2)CCCCC1 | 38.7 (≈ 103 µM) |

| Compound | solubility kinetic [µg/mL] |
| --- | --- |
| COc1cccc(NC(=O)COC(=O)C2CC2)c1 | > 37.4 |
| Cc1cc(C)c(OCCCCCn2ccnc2)c(C)c1 | > 40.9 |
| Cc1ccc(S(=O)(=O)Nc2ccccc2C(O)c2ccccc2)cc1 (centres undefined) | 6.1 (≈ 17.3 µM) |
| CC(=O)Nc1ccc(NC(=O)CN2C(=O)NC3(CCCCCCC3)C2=O)cc1 | 45.1 (≈ 117 µM) |
| CC(NS(=O)(=O)c1ccc(Cl)cc1)C(=O)N1CCOCC1 (centres undefined) | 39.7 (≈ 119 µM) |
| O=C(/C=C/c1ccc(-c2ccc(F)cc2)o1)N1CCCC1 | 31.7 (≈ 111 µM) |
| S=C(NCc1cccs1)Nc1cccc2ccccc12 | 30.5 (≈ 102 µM) |
| CC(=O)c1sc(NCc2ccccc2)nc1C | 31.8 (≈ 129 µM) |
| ONC(=Nc1cccc(C(F)(F)F)c1)c1cccnc1 | > 42.2 |
| CN(CCO)CCOCCOc1cccc2ccccc12 | 34.6 (≈ 120 µM) |
| COc1ccc(S(=O)(=O)N2CCN(C(=O)c3cc(C)nc4ccccc34)CC2)cc1OC | > 68.3 |
| CC(C)(C)c1cc(NC(=O)Nc2ccccc2)no1 | 4.1 (≈ 15.8 µM) |
| C#CCn1cccc(C(=O)Nc2ccc(OC)cc2)c1=O | 6.3 (≈ 22.3 µM) |
| COc1ccc(Cl)cc1N1C(=O)CC(Sc2ccccc2N)C1=O (centres undefined) | < 0.4 |
| O=C(NC1CCC(c2ccccc2)CC1)c1cccnc1 (centres undefined) | 4.3 (≈ 15.3 µM) |
| C=CCSc1nc2ccccc2n2cnnc12 | > 36.3 |
| CCOc1ncccc1C(=O)OCC(=O)NCc1ccc2c(c1)OCO2 | > 53.8 |
| COC(=O)c1cc(NC(=O)COC(=O)CCc2nc3ccccc3c(=O)[nH]2)cc(C(=O)OC)c1 | 18 (≈ 38.5 µM) |
| COc1ccccc1OCC(=O)Nc1nc2c(s1)CCCC2 | 8 (≈ 25.1 µM) |
| O=[N+]([O-])c1ccccc1/C=C/CN1CCCCC1CO (centres undefined) | 34.3 (≈ 124 µM) |
| CN1CCN(c2ccccc2NC(=O)c2c(F)cccc2F)CC1 | > 49.7 |
| O=C(Nc1cc(Cl)ccc1Cl)C1Cc2ccccc2O/C1=N\O (centres undefined) | 2.8 (≈ 7.97 µM) |
| O=C(CC1(CC(=O)N2CCOCC2)CCCC1)Nc1ccc(F)cc1 | > 52.3 |
| Cc1ccc(NC(=O)c2ccc(Cl)nc2)cc1S(=O)(=O)N1CCOCC1 | 12.4 (≈ 31.3 µM) |

| Compound | solubility kinetic [µg/mL] |
| --- | --- |
| Cc1cc(C)n2nc(SCC(=O)NC3CCCCC3)nc2n1 | > 47.9 |
| O=C(NC(=S)Nc1ccccc1O)c1cccnc1 | > 41 |
| CCC(=O)c1ccc(OC(C)C(=O)NC2(C#N)CCCCC2)cc1 (centres undefined) | 25 (≈ 76.1 µM) |
| O=C(O)C1Nc2ccc(Br)cc2C2C=CCC12 (centres undefined) | 43.6 (≈ 148 µM) |
| O=C(Nc1c(C(=O)O)[nH]c2ccccc12)c1cccc(C(F)(F)F)c1 | > 52.2 |
| COc1ccc(CCNC(=O)c2cccc3ccccc23)cc1OC | 38 (≈ 113 µM) |
| CN(c1ccc([N+](=O)[O-])cc1C(N)=O)C1CCCCC1 | 38.3 (≈ 138 µM) |
| Cc1ccc(/C=C/C(=O)O)cc1S(=O)(=O)NCc1cccnc1 | 46.9 (≈ 141 µM) |
| Nc1ccc(C(=O)[O-])c(O)c1.O.[Na+] | > 31.7 |
| O=C(COc1ccc(Cl)cc1)NCCN1CCCCC1 | > 44.5 |
| Cc1ccc2c(c1)N(Cc1cccc(F)c1)C(=O)C(C)O2 (centres undefined) | 12.7 (≈ 44.5 µM) |
| Cc1nn(C)c(C)c1/C=C(/C(=O)C(C)C)n1cncn1 | > 41 |
| Cc1cccc(-n2cnc(C(=O)N3CCN(C)CC3)c2)n1 | > 42.8 |
| O=C(CSC1=Nc2ccccc2C2CC=NN12)NCc1ccco1 (centres undefined) | > 51.1 |
| O=C(OCC(=O)N1CCN(c2ccccc2)CC1)c1ccncc1 | > 48.8 |
| COc1cccc(C(=O)N2CCOCC2)c1 | 32.5 (≈ 147 µM) |
| O=C(Nc1ccc(O)cc1)N1CCOCC1 | > 33.3 |
| NC(=O)CC[C@H](NC(=O)c1ccc(F)cc1)C(=O)OCC(=O)NCc1ccc2c(c1)OCO2 | 1.2 (≈ 2.61 µM) |
| Cn1cccc2[nH]c(=O)nc1-2 | 15.5 (≈ 104 µM) |
| O=C(Nc1cccc(C(=O)Nc2ccccc2C(=O)O)c1)c1cccc(Cl)c1 | > 59.2 |
| O=C(CNC(=O)c1ccccc1F)NC1=NCCS1 | > 42.2 |
| COC(=O)c1c(C)oc(C)c1S(=O)(=O)NCC1CC1 | > 43.1 |
| CC1CCN(CCn2c(=S)[nH]c3cc4c(cc3c2=O)OCO4)CC1 | 29.4 (≈ 84.6 µM) |
| CCOC(=O)c1sc(-c2cccs2)nc1C | 2.6 (≈ 10.3 µM) |

| Compound | solubility kinetic [µg/mL] |
| --- | --- |
| CN(C)C(CNS(=O)(=O)c1ccc(Cl)cc1F)c1ccco1.Cl (centres undefined) | > 57.5 |
| CCC(C)c1ccccc1NC(=S)NC(=O)c1ccco1 (centres undefined) | 6 (≈ 19.8 µM) |
| CC1CCCCC1NC(=O)COC(=O)/C=C/c1ccco1 (centres undefined) | 22.6 (≈ 77.6 µM) |
| COc1ccc(Cl)cc1NC(=S)N1CCN(S(C)(=O)=O)CC1 | > 54.6 |
| Cn1cc([N+](=O)[O-])c(C(=O)N2CCCCCC2)n1 | > 37.8 |
| COc1ccc(C(=O)NCC(C)NC(=O)c2ccc(OC)c(OC)c2)cc1OC (centres undefined) | 8.9 (≈ 22.1 µM) |
| CC1=CC2=NC(=O)/C(=C/c3cccs3)C(=N)N2O1 | 2.8 (≈ 10.8 µM) |
| CCOC(=O)NC1Cc2ccccc2C1Sc1ccccn1 (centres undefined) | 44.8 (≈ 142 µM) |
| CCCCN(CCCC)c1ncnc2nc[nH]c12 | 29.8 (≈ 120 µM) |
| Cc1cc(C)nc(NC(=O)c2ccc(Br)s2)n1 | > 46.8 |
| CC1CCN(C(=O)/C(=C\c2ccccc2)NC(=O)c2ccccc2)CC1 | 52.2 (≈ 150 µM) |
| CCC1Oc2ccc(C)cc2N(CC(=O)N2CCCC2)C1=O (centres undefined) | > 45.4 |
| Cn1c(NC2CCCCC2)cc(=O)n(C)c1=O | > 35.6 |
| Cc1nc(SCC(=O)N2CCOCC2)c2c(=O)n(C)c(=O)n(CC(C)C)c2n1 | 47.8 (≈ 117 µM) |
| CCCN(CC(=O)Nc1ccccc1OC)C(=O)c1ccc(=O)[nH]c1 | > 51.5 |
| CC(=O)Nc1ccc(S(=O)(=O)NCCc2c[nH]c3ccc(C)cc23)cc1 | 33.8 (≈ 91 µM) |
| Cc1ccc(C(=O)OCc2nc3ccsc3c(=O)[nH]2)o1 | > 43.5 |
| Cc1nc2ccc(Br)cc2c(-c2ccccc2)c1C(=O)O | > 51.3 |
| CCOC(=O)C(Cc1ccc(Cl)cc1Cl)c1ccno1 (centres undefined) | 11.7 (≈ 37.2 µM) |
| O=c1oc2cc(Br)ccc2n1Cc1ccccc1 | < 0.7 |
| COc1cc2nc(CN3CCN(S(=O)(=O)c4ccc(Br)cc4)CC3)[nH]c(=O)c2cc1OC | 17.7 (≈ 33.8 µM) |
| O=C(CCC(=O)N1CCOCC1)c1ccc(F)cc1 | > 39.8 |
| COc1ccc(NS(=O)(=O)c2cn(C)cn2)cc1OC | 32.9 (≈ 111 µM) |
